Active and inactive are the calls of the source. The rule behind the calls is not given here.
Legend:
Bacillus subtilis = assay: Antimicrobial activity against Bacillus subtilis at 1.5 ug after 18 hrs by paper disk-agar diffusion assay; assay type: functional, organism-based; details: dose 1.5 µg
Candida = assay: Antimicrobial activity against Candida sp. at 1.5 ug after 18 hrs by paper disk-agar diffusion assay; assay type: functional, organism-based; details: dose 1.5 µg
[1] = target: Sodium channel protein type 5 subunit alpha (Homo sapiens, UniProt Q14524); assay: Inhibition of NaV1.5 (unknown origin) at 5 uM
Sodium channel protein type 5 subunit alpha, sequence (Q14524 whole entry, the tested form may be a part): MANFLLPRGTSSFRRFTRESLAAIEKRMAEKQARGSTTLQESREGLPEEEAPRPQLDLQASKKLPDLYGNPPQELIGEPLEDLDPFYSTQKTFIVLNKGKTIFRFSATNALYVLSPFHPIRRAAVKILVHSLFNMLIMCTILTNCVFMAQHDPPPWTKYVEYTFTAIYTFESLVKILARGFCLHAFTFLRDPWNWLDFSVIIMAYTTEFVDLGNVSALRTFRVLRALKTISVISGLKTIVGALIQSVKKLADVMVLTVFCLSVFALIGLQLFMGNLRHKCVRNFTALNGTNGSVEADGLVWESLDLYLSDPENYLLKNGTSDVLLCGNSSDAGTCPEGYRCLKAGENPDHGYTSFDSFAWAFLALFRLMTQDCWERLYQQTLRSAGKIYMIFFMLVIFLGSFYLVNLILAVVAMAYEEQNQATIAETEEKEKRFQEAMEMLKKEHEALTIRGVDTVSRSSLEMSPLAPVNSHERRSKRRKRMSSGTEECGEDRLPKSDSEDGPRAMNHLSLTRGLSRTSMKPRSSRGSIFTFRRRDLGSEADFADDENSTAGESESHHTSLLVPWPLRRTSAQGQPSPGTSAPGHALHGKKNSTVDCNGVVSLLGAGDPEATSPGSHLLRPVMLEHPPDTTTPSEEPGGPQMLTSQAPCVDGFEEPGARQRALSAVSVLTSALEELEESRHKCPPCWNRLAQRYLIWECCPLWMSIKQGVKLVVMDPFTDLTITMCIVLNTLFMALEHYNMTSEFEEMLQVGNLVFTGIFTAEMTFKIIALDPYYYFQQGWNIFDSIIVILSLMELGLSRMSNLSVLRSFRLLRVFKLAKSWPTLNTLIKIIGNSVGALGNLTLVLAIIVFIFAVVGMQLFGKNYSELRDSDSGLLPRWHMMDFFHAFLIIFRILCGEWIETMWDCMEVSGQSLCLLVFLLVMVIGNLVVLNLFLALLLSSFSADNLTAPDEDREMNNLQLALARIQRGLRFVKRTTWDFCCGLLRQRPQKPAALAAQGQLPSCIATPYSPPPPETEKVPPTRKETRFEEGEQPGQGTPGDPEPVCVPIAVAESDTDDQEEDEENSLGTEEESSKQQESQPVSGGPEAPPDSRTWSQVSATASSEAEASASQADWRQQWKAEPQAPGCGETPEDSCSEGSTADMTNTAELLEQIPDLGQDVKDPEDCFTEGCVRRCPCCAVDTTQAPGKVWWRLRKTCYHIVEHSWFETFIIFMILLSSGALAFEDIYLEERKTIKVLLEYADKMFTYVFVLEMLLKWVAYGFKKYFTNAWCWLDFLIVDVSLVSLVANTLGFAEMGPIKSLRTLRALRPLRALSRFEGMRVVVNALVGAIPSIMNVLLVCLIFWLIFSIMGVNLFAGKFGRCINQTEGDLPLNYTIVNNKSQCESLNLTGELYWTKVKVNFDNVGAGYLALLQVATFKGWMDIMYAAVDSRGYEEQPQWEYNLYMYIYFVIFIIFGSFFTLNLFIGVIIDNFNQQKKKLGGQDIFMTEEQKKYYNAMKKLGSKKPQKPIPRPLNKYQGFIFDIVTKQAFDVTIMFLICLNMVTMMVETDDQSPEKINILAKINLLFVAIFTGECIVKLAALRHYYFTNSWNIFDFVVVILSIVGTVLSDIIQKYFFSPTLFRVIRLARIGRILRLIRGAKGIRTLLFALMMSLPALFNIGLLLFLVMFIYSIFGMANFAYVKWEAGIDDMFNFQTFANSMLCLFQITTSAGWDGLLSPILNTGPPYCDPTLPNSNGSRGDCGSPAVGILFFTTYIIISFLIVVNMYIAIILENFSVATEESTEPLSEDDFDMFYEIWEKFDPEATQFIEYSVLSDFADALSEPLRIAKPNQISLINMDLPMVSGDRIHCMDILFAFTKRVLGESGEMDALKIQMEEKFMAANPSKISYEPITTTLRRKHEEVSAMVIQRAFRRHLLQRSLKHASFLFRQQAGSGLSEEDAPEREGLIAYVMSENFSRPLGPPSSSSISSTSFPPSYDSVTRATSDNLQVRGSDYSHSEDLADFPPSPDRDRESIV

Pseudomonas putida = assay: Antimicrobial activity against Pseudomonas putida at 1.5 ug after 18 hrs by paper disk-agar diffusion assay; assay type: functional, organism-based; details: dose 1.5 µg

| SMILES | Activity (Bacillus subtilis) | Activity (Candida) | inhibition (INH) [1] | Activity (Pseudomonas putida) |
| --- | --- | --- | --- | --- |
| C[C@]12NC(=N)NC=C1C[C@]1(C)O[C@@]2(O)C[C@@H]1O | inactive | inactive | Not Active | inactive |
| C[C@]12NC(=N)NC=C1C[C@]1(C)O[C@@]2(O)CC1=O | inactive | inactive | Not Active | inactive |
| C[C@]1(O)C[C@@H]2CNC(=N)N[C@]2(C)C(=O)C[C@@H]1O | – | – | Not Active | – |
| C[C@@]12NC(=N)N[C@H]3O[C@H]4C[C@]1(O)O[C@@]4(C)C[C@H]32 | – | – | Not Active | – |
| C[C@]12NC(=N)NC[C@H]1C[C@]1(C)O[C@@]2(O)CC1=O | – | – | Not Active | – |
| C[C@]12NC(=N)NC[C@H]1C[C@]1(C)O[C@@]2(O)C[C@@H]1O | – | – | Not Active | – |

From ChEMBL document CHEMBL4665796 (2020)
